Measurements published in patent US9914732B2, “Diazabicyclo[4.3.1]decane derivatives for treatment of psychiatric disorders” (Max-Planck-Gesellschaft zur Forderung der Wissenschaften …, priority 2014, dated 2018).

Tested on: N2a cells
Assay: N2a cellular assay (neurite outgrowth)
Type: cell-based
Details: N2a neuroblastoma cells, FIG. 1
Description: FK506 analogs have repeatedly been described as neuroprotective and […] agents in the prior arts.
Example 12: N2a Cellular Assay
At day one N2a cells were plated into 24-well plates with cover slips (pretreated with polylysine) at a density of 35,000 cells/well and cultured with DMEM (incl. FCS 10% and Pen/Strep 1%) for 24 h. Next, cells were transfected with 80 ng expression plasmids encoding Venus as well as 720 ng pRK5 (mock transfection) in a total volume of 500 μl starvation media containing different concentrations of compounds or DMSO for 36 h (media without FCS; induction of neurite outgrowth). Therefore media was removed and replaced by 400 μl DMEM (empty). Next an equivalent volume of plasmids were given to 50 μl OPTIMEM and incubated for 5 min at RT. Additionally 1.5 μl Lipofectamine 2000 was separately dissolved in 50 μl OPTIMEM. After 5 min both solutions (plasmids and Lipofectamine 2000 containing media) were combined and incubated again for another 20 min. After that 100 μl of this mixture was given to 400 μl media per well. (See also protocol of the provider—Life Technologies).
On the next day cells were washed with PBS and incubated for 30 min with 300 μl PFA (4%) and sucrose (5%) to fix cells. After fixation cells were washed three times, mounted onto microscope slides using 4 μl Vectashield (mounting media) and analyzed by fluorescence microscopy. […]

`COc1ccc(OCCN2C[C@H]([C@H](O)CO)C3CCCC(C2=O)N3S(=O)(=O)c2cc(Cl)cc(Cl)c2)cc1OC` (stereo partly drawn) [Compound C2a, (1S,5S,6R)-10-((3,5-dichlorophenyl)sulfonyl)-5-(1,2-dihydroxyethyl)-3-(2-(3,4-dimethoxyphenoxy)ethyl)-3, 10-diazabicyclo[4.3.1]decan-2-one] was tested, and the neurite outgrowth was “potently enhanced neurite outgrowth”.
